pIC50: −log10 of the molar value.
Experiments:
[1] = male mice, previously reported; cited from earlier work
[2] = system: SUDHL1 (CD30 positive); assay: Suspension cells cytotoxicity assay (CellTiter-Glo), SUDHL1; type: cell-based; settings: Homo sapiens, SU-DHL-1, 3-5 days
Experimental: Three to five thousand (3,000-5,000) cells per well were seeded in tissue culture plates in 50 μL/well culture media and incubated at 37° C. for 18-24 hours.
Serial dilutions of ADCs in culture media were then dispensed into the plates at 50 μL/well. […] CellTiter-Glo reagent was prepared per manufacturer's instructions and added at 100 μL/well to the cultures. CellTiter-Glo allows for relative enumeration of metabolically active cells by quantifying intracellular ATP concentrations. […] Luminescence signals were detected using a standard plate reader and IC50s were calculated by logistic nonlinear regression using GraphPad Prism (GraphPad Software, San Diego, CA).

[3] = system: SKBR3 (Her2 positive); assay: Adherent cells cytotoxicity assay (CellTiter-Glo), SKBR3; type: cell-based; settings: Homo sapiens, SK-BR-3, 3 to 5 days
Experimental: (§1) Adherent cells were cultured in a T75 flask to ~50-80% confluency and harvested with trypsin into a single cell suspension. Three to five thousand (3,000-5,000) cells per well were seeded in tissue culture plates in 50 μL/well culture media and incubated at 37° C. for 18-24 hours. Serial dilutions of ADCs in culture media were then dispensed into the plates at 50 μL/well. After plating and treatment, cells were returned to the incubator for an additional 3 to 5 days. CellTiter-Glo reagent was prepared per manufacturer's instructions and added at 100 μL/well to the cultures. CellTiter-Glo allows for relative enumeration of metabolically active cells by quantifying intracellular ATP concentrations. […] Luminescence signals were detected using a standard plate reader and IC50s were calculated by logistic nonlinear regression using GraphPad Prism (GraphPad Software, San Diego, CA).

[4] = system: HCC1954 (Her2 positive); assay: Adherent cells cytotoxicity assay (CellTiter-Glo), HCC1954; type: cell-based; settings: Homo sapiens, 3 to 5 days
Experimental: as §1

[5] = system: Confluent HCC1954 (Her2 positive); assay: Adherent cells cytotoxicity assay (CellTiter-Glo), confluent HCC1954; type: cell-based; settings: Homo sapiens

SMILES | maximum tolerated dose (MTD) [1] | pIC50 [2] | pIC50 [3] | pIC50 [4] | pIC50 [5]
COc1cc2c(cc1O)CCN[C@]21CS[C@@H]2c3c(OC(C)=O)c(C)c4c(c3[C@H](COC1=O)N1[C@@H]2[C@H]2c3c(cc(C)c(OC)c3O)C[C@@H]([C@@H]1O)N2C)OCO4 [trabectedin] | 0.15 mg/kg |  |  |  | 
COc1ccc2[nH]c3c(c2c1)CCN(C(N1CCCC1)N1CCCC1)[C@]31CS[C@@H]2c3c(OC(C)=O)c(C)c4c(c3[C@H](COC1=O)N1C2[C@H]2c3c(cc(C)c(OC)c3O)C[C@@H](C1O)N2C)OCO4 (some centres unmarked) [Lurbinectedin Derivative 1] |  | 9.20 | 9.27 | 8.59 | 8.43

— US20260224720A1, “ECTEINASCIDIN DERIVATIVE ANTIBODY DRUG CONJUGATES” (priority 2023, published 2026)
